Values after ≈ are worked out from the molar mass of the structure shown. Values joined by “and” are separate entries in the source; they are usually repeats but may differ in a detail not shown here. Equal values may be shown once. Read-outs that look alike come from different tables or passages of the source.
Legend:
[1] = Mouse PK, combined (cassette) dosing of BGAz-001–005; assay type: in vivo, KM mice; design: AUMC(0-t) / VRT(0-t) / λz: unit not given here; conditions: for AUC(0-t): read-out: AUC(0-t); for MRT last: read-out: MRT(0-t); for MRT inf: read-out: MRT(0-∞); for Vd/F: read-out: Vz/F
Excerpt: Methods for combined single dosing (BGAz001–005) and dosing of single compounds multiple times (BGAz004 and BGAz005) are described in detail in the Supporting Information (PK Data).
Report on PK Results of Combined Dosing with BGAz-001–005
1 Materials and instrument combined dosing
An MS2 Turnover type oscillator was purchased from IKA Work’s Guangzhou (China), and a 5415R ChromatographicanalyseswereconductedusinganAgilent1290InfinityIIhighperformanceliquidchromatography andAgilentTechnologies6470TripleQuadLC/MS.Propranolol(≥90%inpurity,internalstandard,IS)waspurchased fromtheSigmaChemicalCo.(China).Formicacid(HPLCgrade)andmethanol(HPLCgrade)werepurchasedfrom DIKMACo.(China).Allchemicalsandsolventswereanalyticalgrade.WaterwaspurifiedusingaMillipore(AK,USA) laboratoryultra-purewatersystem(0.2μmfilter).
KMmice,weighing25–35g(BeijingVitalRiverLaboratoryAnimalTechnologyCo.,Ltd.,China)wereutilisedforthe studies.The protocols were approved by the Animal Care and Use Committee, GIBH. Animals were maintained on standard animal chow and waterad libitum, in a climate-controlled room (23±1 °C 30–70% relative humidity, a minimumof tenexchangesof roomairperhouranda12hlight/darkcycle)foroneweekpriortoexperiments.
3 Pharmacokinetic studies
Compounds BGAz-001 ，BGAz-002 ，BGAz-003 ，BGAz-004 and BGAz-005 were dissolved mixed in a solution containing DMSO (2%),ethanol (4%), Cremophor EL (4%) and ddH2O (90%); Pharmacokinetic propertiesof KM (male) were determined following IV, PO and IP administration. Animals were randomly distributed into three experimentalgroups(n=4).ThePOgroupwasgivenmixedsolutionwith5mg/kgbygastricgavage.TheIVgroup was dosed with mixed solution 1mg/kg byinjection into the tail vein. The IP group was dosed with mixed solution 1mg/kg by intraperitoneal injection. After single administration, whole blood samples (100 μL) were obtained from the orbital venousplexus atthe followingtime pointsafter dosing:5, 15,30 minand 1,3, 5,8, 24hour (PO and IP groups) and at the following time points after dosing 2, 10, 30min and 1, 3, 5, 8,24 hour (IV group). Wholeblood samples were collected in heparinised tubes. The plasma fraction was immediately separated by centrifugation. The micewerehumanelyeuthanasiabycarbondioxide24hoursafterexperimentwithoutpain.
4 Plasma sample and brain sample analysis
4.1 Standard curve sample preparation
ThecompoundsweredissolvedinDMSO(2mg/mL)anddilutedwithtoseriesconcentration(methanol:H 2O,1:1,10 μL) and blank plasma (50 μL) were added to 1.5 mL tubes and vortexed for 3 min, then acetonitrile-containing internalstandard(150μL)wasaddedandvortexedforafurther5min,andsubsequentlyspuninacentrifugeat13000 […]
4.2 Plasma and preparation
Plasmasampleswerepreparedusingaproteinprecipitationmethod.Solution(10μL,methanolH 2O,1:1)andplasma samples(50μL)wereaddedto1.5mLtubesandvortexfor3min,thenacetonitrile-containinginternalstandard(150 μL)wasaddedandvortexfor5min,andsubsequentlyspuninacentrifugeat13000× gfor40minat4°C.
Aftercentrifugation,supernatant(100μL)wastransferto96wellplatesandanalysedbyLC-MS/MSusinganAgilent 1290InfinityIIHPLCandanAgilentTechnologies6470TripleQuadLC/MS.

M. bovis BCG = assay: microbe, parasite or virus in culture; assay type: cell-based; conditions: Mycobacterium tuberculosis variant bovis BCG, read-out: BCG MBC
[2] = IP 1 mg/kg, cassette, mean of animals
[3] = IV 1 mg/kg, cassette, mean of animals
[4] = PO 5 mg/kg, cassette, mean of animals
[5] = male, KM, mouse, plasma, IP 1 mg/kg, cassette
[6] = male, KM, mouse, plasma, IP 1 mg/kg, cassette, mean of animals
[7] = male, KM, mouse, plasma, IV 1 mg/kg, cassette
[8] = male, KM, mouse, plasma, IV 1 mg/kg, cassette, mean of animals
[9] = male, KM, mouse, plasma, PO 5 mg/kg, cassette
[10] = male, KM, mouse, plasma, PO 5 mg/kg, cassette, mean of animals

Brc1cc(Br)cc(C2CC(CN3CCCC3)N2Cc2ccccc2Br)c1 (stereo not shown) [BGAz-004]
AUMC(0-t) [1, 2]: 3591.68 **μg
AUMC(0-∞) [1, 2]: 7580.816 **μg
CLz/F [1, 2]: 1.737 L/kg
C_last [1, 2]: 7.173 µg
R_AUC(t/∞) [1, 2]: 82.475%
VRT(0-t) [1, 2]: 44.576 ^2
VRT(0-∞) [1, 2]: 210.175 ^2
λz [1, 2]: 0.071 1/
AUC(0-∞) ([1]; IP 1 mg/kg, cassette, summary table): 581.359 µg·h
AUMC(0-t) [1, 3]: 5267.479 **μg
AUMC(0-∞) [1, 3]: 9388.553 **μg
CLz/F [1, 3]: 1.659 L/kg
C_last [1, 3]: 6.542 µg
R_AUC(t/∞) [1, 3]: 90.625%
VRT(0-t) [1, 3]: 43.967 ^2
VRT(0-∞) [1, 3]: 134.645 ^2
Vz/F [1, 3]: 17.622 L/kg
λz [1, 3]: 0.091 1/
AUC(0-∞) ([1]; IV 1 mg/kg, cassette, summary table): 789.43 µg·h
BA ([1]; PO 5 mg/kg vs IV 1 mg/kg, cassette): 35.64%
AUMC(0-t) [1, 4]: 7719.114 **μg
AUMC(0-∞) [1, 4]: 23536.035 **μg
CLz/F [1, 4]: 3.927 L/kg
C_last [1, 4]: 32.311 µg
R_AUC(t/∞) [1, 4]: 62.325%
VRT(0-t) [1, 4]: 36.246 ^2
VRT(0-∞) [1, 4]: 301.909 ^2
λz [1, 4]: 0.069 1/
AUC(0-∞) ([1]; PO 5 mg/kg, cassette, summary table): 1406.796 µg·h
AUC(0-inf) ([1]; male, KM, mouse, plasma, ip, 1 mg/kg, IP 1 mg/kg, cassette, mean of animals, read-out: AUC(0-∞)): 581 ng·h/mL
Cmax ([1]; male, KM, mouse, plasma, ip, 1 mg/kg, IP 1 mg/kg, cassette, mean of animals, read-out: Cmax): 61 ng/mL
Tmax ([1]; male, KM, mouse, plasma, ip, 1 mg/kg, IP 1 mg/kg, cassette, mean of animals, read-out: Tmax): 16.3 min
Cmax ([1]; male, KM, mouse, plasma, ip, 1 mg/kg, IP 1 mg/kg, cassette, summary table, read-out: Cmax): 61 ng/mL
half-life ([1]; male, KM, mouse, plasma, ip, 1 mg/kg, IP 1 mg/kg, cassette, summary table, read-out: T1/2 (converted)): 589 min
Tmax ([1]; male, KM, mouse, plasma, ip, 1 mg/kg, IP 1 mg/kg, cassette, summary table, read-out: Tmax): 16.3 min
AUC(0-inf) ([1]; male, KM, mouse, plasma, iv, 1 mg/kg, IV 1 mg/kg, cassette, mean of animals, read-out: AUC(0-∞)): 789 ng·h/mL
Cmax ([1]; male, KM, mouse, plasma, iv, 1 mg/kg, IV 1 mg/kg, cassette, mean of animals, read-out: Cmax): 278 ng/mL
Tmax ([1]; male, KM, mouse, plasma, iv, 1 mg/kg, IV 1 mg/kg, cassette, mean of animals, read-out: Tmax): 1.98 min
Cmax ([1]; male, KM, mouse, plasma, iv, 1 mg/kg, IV 1 mg/kg, cassette, summary table, read-out: Cmax): 278 ng/mL
half-life ([1]; male, KM, mouse, plasma, iv, 1 mg/kg, IV 1 mg/kg, cassette, summary table, read-out: T1/2 (converted)): 497 min
Tmax ([1]; male, KM, mouse, plasma, iv, 1 mg/kg, IV 1 mg/kg, cassette, summary table, read-out: Tmax): 1.98 min
AUC(0-inf) ([1]; male, KM, mouse, plasma, po, 5 mg/kg, 5 mg/kg PO, cassette dosing, read-out: AUC0-inf): 1410 ng·h/mL
Cmax ([1]; male, KM, mouse, plasma, po, 5 mg/kg, 5 mg/kg PO, cassette dosing, read-out: Cmax (Mouse, P.O.)): 87.6 ng/mL
half-life ([1]; male, KM, mouse, plasma, po, 5 mg/kg, 5 mg/kg PO, cassette dosing, read-out: T1/2 (Mouse, P.O.) (converted)): 684 min
Tmax ([1]; male, KM, mouse, plasma, po, 5 mg/kg, 5 mg/kg PO, cassette dosing, read-out: Tmax (Mouse, P.O.)): 52.2 min
AUC(0-inf) ([1]; male, KM, mouse, plasma, po, 5 mg/kg, PO 5 mg/kg, cassette, mean of animals, read-out: AUC(0-∞)): 1410 ng·h/mL
Cmax ([1]; male, KM, mouse, plasma, po, 5 mg/kg, PO 5 mg/kg, cassette, mean of animals, read-out: Cmax): 87.6 ng/mL
Tmax ([1]; male, KM, mouse, plasma, po, 5 mg/kg, PO 5 mg/kg, cassette, mean of animals, read-out: Tmax): 52.5 min
Cmax ([1]; male, KM, mouse, plasma, po, 5 mg/kg, PO 5 mg/kg, cassette, summary table, read-out: Cmax): 87.6 ng/mL
half-life ([1]; male, KM, mouse, plasma, po, 5 mg/kg, PO 5 mg/kg, cassette, summary table, read-out: T1/2 (converted)): 682 min
Tmax ([1]; male, KM, mouse, plasma, po, 5 mg/kg, PO 5 mg/kg, cassette, summary table, read-out: Tmax): 52.5 min
concentration at 0.083 h [1, 5]: 55.3 ng/mL and 100 nM
concentration at 0.25 h [1, 5]: 110 nM and 60.1 ng/mL
concentration at 0.5 h [1, 5]: 90 nM and 50.3 ng/mL
concentration at 1 h [1, 5]: 70 nM and 39.4 ng/mL
concentration at 3 h [1, 5]: 60 nM and 31 ng/mL
concentration at 5 h [1, 5]: 50 nM and 24.4 ng/mL
concentration at 8 h [1, 5]: 40 nM and 21.8 ng/mL
concentration at 24 h [1, 5]: 10 nM and 7.15 ng/mL
AUC(0-t) [1, 6]: 478 ng·h/mL
MRT last [1, 6]: 7.49 h
MRT inf [1, 6]: 12.9 h
Vd/F [1, 6]: 24.4 L/kg
concentration at 0.033 h ([1]; male, KM, mouse, plasma, IV 1 mg/kg, cassette, 0.033 h): 278 ng/mL and 520 nM
concentration at 0.167 h ([1]; male, KM, mouse, plasma, IV 1 mg/kg, cassette, 0.167 h): 270 nM and 148 ng/mL
concentration at 0.5 h [1, 7]: 160 nM and 84.6 ng/mL
concentration at 1 h [1, 7]: 170 nM and 89.6 ng/mL
concentration at 3 h [1, 7]: 80 nM and 40.5 ng/mL
concentration at 5 h [1, 7]: 50 nM and 28.3 ng/mL
concentration at 8 h [1, 7]: 40 nM and 21.6 ng/mL
concentration at 24 h [1, 7]: 30 nM and 15.1 ng/mL
C0 [1, 8]: 327 ng/mL
AUC(0-t) [1, 8]: 688 ng·h/mL
MRT last [1, 8]: 6.4 h
MRT inf [1, 8]: 9.25 h
concentration at 0.083 h [1, 9]: 17.3 ng/mL and 30 nM
concentration at 0.25 h [1, 9]: 80 nM and 42.6 ng/mL
concentration at 0.5 h [1, 9]: 120 nM and 65.1 ng/mL
concentration at 1 h [1, 9]: 160 nM and 84.4 ng/mL
concentration at 3 h [1, 9]: 130 nM and 68.4 ng/mL
concentration at 5 h [1, 9]: 120 nM and 63.3 ng/mL
concentration at 8 h [1, 9]: 110 nM and 60.5 ng/mL
concentration at 24 h [1, 9]: 40 nM and 22.2 ng/mL
AUC(0-t) [1, 10]: 945 ng·h/mL
MRT last [1, 10]: 6.82 h
MRT inf [1, 10]: 15.7 h
Vd/F [1, 10]: 58.1 L/kg
MBC (M. bovis BCG): 12 to 25 µM (≈ 6.52 to 13.6 µg/mL)

— paper PMC10895678 (Journal of Medicinal Chemistry, 2024)
